SMILES strings stand for the structures.

The data set deals with PAH patients. In words: 22-week randomized, double-blind, placebo-controlled study (Example 8). Format: in vivo, human. Here is the method: A 22-week randomized, double-blind, placebo-controlled study with a dose titration period of up to 9 weeks was conducted. Sixty-one patients were randomized 2:1 Compound 1 to placebo. Right Heart Catheterization (RHC) measurements were obtained prior to study Day 1 of the dose titration period and at Week 22. The following values were obtained and recorded: pulmonary artery pressure (PAP) (systolic, diastolic, and mean), heart rate (HR), right atrial pressure (RAP), pulmonary capillary wedge pressure (PCWP) right ventricular pressure (RVP) and cardiac output (CO), pulmonary vascular resistance (PVR), arterial and mixed venous oxygen saturation […] (if applicable). Systemic vascular resistance (SVR) was estimated from blood pressure measurements. The 6-minute walk test (6MWD) was conducted according to the modified guidelines issued by the American Thoracic Society. See Am J Respir Crit Care Med 166:111-117, 2002.
Primary efficacy endpoints for the study were: a) change from baseline in PVR after 22 weeks of treatment, and b) change from baseline in 6MWD after 22 weeks of treatment.
Compound 1 was administered as a capsule in 0.01, 0.02, 0.03, 0.04, and 0.10 mg dose strengths. The formulation was supplied as a liquid-filled, size 4, hard-gelatin capsule containing Compound 1, polyoxyl 40 hydrogenated castor oil (Kolliphor® RH40) NF, butylated hydroxytoluene (BHT)NF, and colloidal silicon dioxide NF.
The starting dose of Compound 1 was 0.01 mg twice daily. The dose of Compound 1 was titrated according to patient tolerability. If the initial dose was tolerated (0.01 mg twice daily), then the dose was increased once a week in the following fashion: 0.02 mg twice daily, 0.03 mg twice daily, 0.04 mg twice daily, 0.06 mg twice daily, 0.08 mg, 0.1 mg twice daily, 0.2 mg twice daily and 0.3 mg twice daily. The dose was optionally escalated to a possible maximum total daily dose of 0.6 mg (0.3 mg twice daily), pending tolerability. […] Compound 1 daily maintenance doses were titrated as high as 0.6 mg, and the most common dose was 0.4 mg.
Subjects received concomitant oral disease-specific PAH therapy only if the dose remained stable for at least 3 months prior to the start of screening. This therapy consisted of the following: ERA and/or an agent acting on the NO pathway including the following: a PDE-5 inhibitor and a sGC stimulator. Subjects were instructed to continue the same dose and regimen of these medications for the duration of the study.

As to `O=C(O)COC[C@H]1CC[C@H](COC(=O)N(c2ccccc2)c2ccc(Cl)cc2)CC1` [Compound 1, 2-(((1r,4r)-4-(((4-chlorophenyl)(phenyl)carbamoyloxy)methyl)cyclohexyl)methoxy)acetic acid], the “correlation between plasma levels and improvements in PVR” value (22-week study period, p=0.004 (FIG. 17)) is reported as “significant correlation”. Where the note is “22 weeks, not significantly different from placebo”, the “increase of least-squares mean 6MWD” value is reported as 36.2 m. The adverse events result (PAH patients, 22-week study) is on record as “consistent with other prostacyclin treatments for the management of PAH”. Also, the “mean reduction in BNP from baseline to Week 22 versus placebo” value (difference not significantly different) is “numerically greater”. For the same molecule, under “during the 9-week dose titration period (FIG. 15)”, the “mean pre-dose and 4 hours post-dose plasma concentrations” value is reported as “continued to rise”. Moreover, under “immediate-release capsule twice daily, titrated up to 0.6 mg total daily dose, p=0.02 vs placebo”, the “decrease of PVR from baseline to Week 22” value was 163.9 dyn·s·cm^−5. Also, for the setting “in vivo”, the “correlation between PVR percentage change and dose” value is on record as “no significant correlation”. Also, the “correlation between plasma levels and improvements in 6MWD” value (p=0.0037 (FIG. 18)) is “significant correlation”. Besides, the “correlation between plasma levels and improvements in BNP” value (p=0.047 (FIG. 19)) is listed as “significant correlation”. The “mean steady-state pre-dose and 4-hours post-dose plasma concentrations” value (throughout the 13-week maintenance period (FIG. 15)) is recorded as “maintained”.

Source of the values: patent US12433865B2, “Compositions comprising PGI2-receptor agonists and processes for the preparation thereof” (Arena Pharmaceuticals, Inc., priority 2018, dated 2025).
